# In patent US20230047961A1, “THE CHOLESTEROL-SYNTESIS INTERMEDIATES FOR TREATMENT DEMYELINATING DISORDERS” (priority 2019, published 2023):
# Entries after “also recorded” stand apart in the source; their conditions may differ.
# How the values were obtained:
# [1] = test system: myelinating co-cultures; test: Myelinating co-culture in vitro (MBP area normalized to SM131 axons); assay type: cell-based; details: 100 μM squalene
# Procedure: Myelinating co-cultures were established as described (Thomson, C. E. et al. 2008) with minor modifications. Briefly, E13 embryonic spinal cords were digested in 0.125% Trypsin solution in HBSS (without Ca^+2 and Mg^+2) at 37° C. for 20 min. After stopping the digestion with 1 ml plating media (DMEM, 25% horse serum, 25% HBSS, […] DNAse) the tissue was homogenized by gentle trituration and centrifuged for 5 min. 150,000 cells were plated per poly-L-lysine coated coverslip; 3 coverslips per 35 mm Petri dish. After cell attachment in plating media, differentiation media was added (low glucose DMEM, […] insulin, 10 ng ml^−1 biotin, 50 nM hydrocortisone, 0.5% N1-mix). N1 mix was 1 mg ml^−1 apo-transferrin, 20 mM putrescine, […] progesterone, and 6 mM sodium selenite. 50% media change was performed every 24-48 h with differentiation media. Squalene (100 μM) was added at day 3 to cultures. After 12 days, insulin was removed from differentiation media. […] Axonal (SM131) area and the area with myelin sheaths (MBP) of seven randomly chosen visual fields of myelinating co-cultures (×20 magnification) was measured by automated threshold with Fiji Software (SM131 Otsu, MBP Triangle). Specimens were analyzed on an Axiophot observer.Z1 (Zeiss) equipped with an AxioCam MRm and the ZEN 2012 blue edition software and evaluated with Image J software.
# [2] = test system: Plp1-tg mice; test: Elevated beam test in Plp1-tg mice (Pelizaeus-Merzbacher disease model); assay type: in vivo, mouse; details: 0.5% [v/w] squalene diet between 2 and 12 weeks of age (FIG. 14a)
# Source text: (§1) Plp1 transgenic Plp1-tg, line #72 mice (Readhead et al., 1994, Stumpf, Berghoff et al., 2019) harbor three copies of the murine Plp1 gene. Dietary treatment was applied between 2 and 12 weeks of age.
# (§2) Dietary supplementation with squalene (0.5% [v/w]).
# To assess bilateral sensorimotor coordination that involves connecting white matter structures, elevated beam test (in-house made, MPI of experimental medicine) was applied. Mice were trained to run toward a hiding box on a beam (width 1.5 cm) one week before testing. In one testing session number of slips in a defined 55 cm distance over three repeats was counted. Mean number of slips after three testing sessions (8 weeks, 10 weeks and 12 weeks) was quantified.
# [3] = test system: inflammatory cells in spinal cord tissue; test: Flow cytometry of inflammatory cells per gram spinal cord in EAE; assay type: in vivo, mouse; details: peak of EAE disease (day 16), therapeutic squalene vs normal chow (FIG. 2)
# [4] = test system: peripheral inflammatory cells; test: Flow cytometry of peripheral inflammatory cells per ml blood in EAE; assay type: in vivo, mouse; details: peak of EAE disease (day 16), therapeutic squalene vs normal chow (FIG. 3a-c)
# Procedure: (§3) Single-cell suspensions from spinal cords were obtained via mechanical dissociation on a cell strainer. Immune cells were separated over a two-phase Percoll-density gradient (70%/30%). Blood was collected by cardiac puncture in EDTA (80 mM) and single-cell suspension was obtained by centrifugation over lymphocyte separation medium (LSM 1077, PAA). Staining of abTCR/CD4 T cells, abTCR/CD8 T cells and CD45/CD11 b cells (macrophages/microglia) was performed using the following antibodies in a 1:200 dilution:Anti-CD3e (clone 145-2C11), BioLegend; anti-CD4 (clone GK 1.5), BD; anti-CD8 (clone 53-6.7), BD; […]; anti-CD11b (clone M1/70), BioLegend; anti-CD45.2 (clone 104), BioLegend. The addition of Calibrite APC beads (BD) allowed for cell quantification. Flow cytometry was performed using a FACSCalibur operated by Cell Quest software (Becton Dickinson).
# [5] = test system: MOG35-55 induced EAE animals; test: Clinical score of MOG35-55 induced EAE animals; assay type: in vivo, mouse
# Procedure: For MOG-EAE, mice purchased from Charles River were immunized subcutaneously with […] myelin oligodendrocyte glycoprotein peptide 35-55 (MOG35-55) in complete Freund's adjuvant (M. tuberculosis at 3.75 mg ml^−1) and i.p. injected twice with 500 ng pertussis toxin. Animals were examined daily and scored for clinical signs of the disease. […] The clinical score was: 0 normal; 0.5 loss of tail tip tone; 1 loss of tail tone; 1.5 ataxia, mild walking deficits (slip off the grid); 2 mild hind limb weakness, severe gait ataxia, twist of the tail causes rotation of the whole body; 2.5 moderate hind limb weakness, cannot grip the grid with hind paw, but able to stay on a upright tilted grid; 3 mild paraparesis, falls down from a upright tiled grid; 3.5 paraparesis of hind limbs (legs strongly affected, but move clearly); 4 paralysis of hind limbs, weakness in forelimbs; 4.5 forelimbs paralyzed; 5 moribund/dead. […] DMHCA (Avanti) was dissolved in corn oil (Sigma) and given therapeutically in chow at a dosage of 8 mg kg^−1. IFNβ1b (Bayer) was administrated by daily intraperitoneal (i.p.) injections 30.000 U per animal.
# [6] = test system: lysolecithin induced lesions; test: Remyelination in lysolecithin induced spinal cord lesions; assay type: in vivo, mouse; details: 14 days post lesion
# Procedure: Focal spinal cord demyelinating lesions were induced under MMF anesthesia (1.0 mg kg^−1 midazolam, 0.05 mg kg^−1 medetomidine and 0.02 mg kg^−1 fentanyl) by stereotactic injection of 1 μl lysolecithin (1%, from egg yolk, alpha-lysophosphatidyl-choline, Sigma) into the left and right ventro-lateral funiculus at Th10 of 8-week old animals. The injection was performed at a rate of ˜1 μl min^−1. This procedure created fusiform demyelinating lesions, 5-6 mm in length. At the day of injection, mice were randomly assigned to normal or 0.5% [v/w] squalene supplemented chow for 14 days, after which the animals were killed, and the spinal cord processed for histology. For serum isolation, blood was collected by cardiac puncture, and serum was prepared after 4 h clotting by centrifugation.
# Mice were perfused with 4% paraformaldehyde (PFA). Spinal cord tissue was postfixed overnight, embedded in paraffin and cut into […] sections (HMP 110, MICROM). For immunohistological analyses, sections were deparaffinized followed by antigen-retrieval in sodium citrate buffer (0.01 M, pH 6.0). For immunofluorescence, sections were blocked with serum free protein block (Dako). Primary antibodies were diluted in 2% bovine serum albumin (BSA)/PBS and incubated for 48 h followed by fluorophor coupled secondary antibodies. Lesion area (DAPI clustered nuclei), oligodendrocyte cell number (CAll, carbonic anhydrase 2) and myelin positive area (MBP, myelin basic protein) were evaluated.
# [7] = test system: spinal cord tissue gene expression; test: RT-qPCR expression profile in spinal cord lysates of EAE mice; assay type: in vivo, mouse; details: remission phase
# Procedure: (§4) For tissue expression analyses, spinal cord tissue was dissected from ˜Th10-˜L5. RNA was isolated using QIAshredder and RNeasy protocols (Qiagen). Concentration and quality of RNA was evaluated using a NanoDrop spectrophotometer and RNA Nano (Agilent). cDNA was synthesized with Superscript III (Invitrogen) and quantitative PCRs were done in triplicates with the GoTaq qPCR Master Mix (Promega) on a 7500 Fast Real-Time PCR System (Applied Biosystems). Expression values were normalized to the mean of three—five housekeeping genes, HPRT (Hypoxanthin-Phosphoribosyl-Transferase 1) and Rplp0 (60S acidic ribosomal protein P), Rps13 (Ribosomal Protein S13), Gapdh (Glyceraldehyde-3-Phosphate Dehydrogenase), 18S (18S ribosomal RNA) and quantification was done by applying the ΔΔCt method, normalized to age matched untreated controls (set to 1). All primers were intron-spanning.
# [8] = test system: CD11b+ myeloid cells (microglia/macrophages); test: RT-qPCR expression profile in MACS isolated CD11b+ myeloid cells of EAE mice; assay type: in vivo, mouse
# Source text: Microglia/Macrophages were isolated according to the adult brain dissociation protocol (Miltenyi biotec). Spinal cord was isolated on ice followed by removal of meninges. Antibody labeling steps were done according to the respective antibody Microbead kit protocol (Miltenyi biotec), oligodendrocytes (04, 130-096-670) and microglia (CD11 b, 130-093-636).
# as §4
# [9] = test system: inflammatory cells in brain and spinal cord tissue; test: Flow cytometry of inflammatory cells in brain and spinal cord of Plp1-tg mice; assay type: in vivo, mouse; details: 0.5% [v/w] squalene diet between 2 and 12 weeks of age (FIG. 14b)
# Procedure: as §3, §1, §2
# [10] = prophylactic squalene vs chow fed controls (FIG. 4a)
# [11] = prophylactic squalene vs chow fed controls (FIG. 4b)
# [12] = acute phase (15 days post immunization), prophylactic squalene vs chow (FIG. 5a)
smiles,measurement,setting,value
"CC(C)=CCCC(C)=CCC/C(C)=C/CC/C=C(\C)CC/C=C(\C)CCC=C(C)C (stereo in doubt) [squalene, (6E,10E,14E,18E)-2,6,10,15,19,23-hexamethyltetracosa-2,6,10,14,18,22-hexaene]",MBP positive area normalized to SM131 positive axons,[1]; 21 DIV (FIG. 7),increased MBP positive area
same,MBP positive area normalized to SM131 positive axons,[1]; 30 DIV (FIG. 7),increased MBP positive area
same,Clinical disease severity by elevated beam testing (number of slips),[2],high potential to ameliorate clinical disease severity
same,Number of CD11b+/CD45+ myeloid cells per gram spinal cord,[3],reduced numbers
same,Number of inflammatory CD4+ T cells per gram spinal cord,[3],reduced numbers
same,Number of inflammatory CD8+ T cells per gram spinal cord,[3],reduced numbers
same,"Number of peripheral immune cells (abTCR/CD4+, abTCR/CD8+, CD45+/CD11b+) per ml blood",[4],did not observe differences
same,Mean clinical score (EAE disease severity),"[5]; prophylactic regimen, 0.5% [v/w] squalene chow from 14 days before immunization (FIG. 1a, 1c)",ameliorate disease severity; also recorded: more effective prophylactic effect than the treatment of multiple sclerosis with interferon beta-1b
same,Mean clinical score (EAE disease severity),"[5]; therapeutic regimen, 0.5% [v/w] squalene chow from day of disease onset (FIG. 1b)",ameliorate disease severity
same,Mean clinical score (EAE disease severity),"[5]; therapeutic regimen, squalene 0.03% [v/w] (FIG. 10a, 10b)",Disease amelioration was already present
same,"Mean clinical score (EAE disease severity), dose comparison","[5]; therapeutic regimen, squalene 0.03% [v/w], 0.5% [v/w] and 5% [v/w] (FIG. 10a)",dose depend
same,Number of CAII positive mature oligodendrocytes within lesion area,[6]; 0.5% [v/w] squalene chow from day of lesion induction vs control (FIG. 6b),strongly increased
same,Degree of MBP positive myelinated axons within lesion area,[6]; 0.5% [v/w] squalene chow from day of lesion induction vs control (FIG. 6f),strongly increased
same,Size of the lesion area (DAPI positive increased nuclear density),[6]; 0.5% [v/w] squalene chow vs control (FIG. 6c),comparable
same,"Expression of cholesterol export genes (Abca1, Abcg1, Abcg4, Apoe, Clu)",[7]; [10],significantly increased expression
same,"Expression of cholesterol synthesis genes (Hmgc1, Hmgcr, Fdft1, Dhcr24, Cyp51a1, Mvk)",[7]; [10],significantly increased expression
same,"Expression of cholesterol uptake genes (Ldlr, Vldlr, Apobr, Lrp1, Lrp2)",[7]; [10],significantly increased expression
same,"Expression of genes related to myelination and oligodendrocyte differentiation (Plp1, Car2, Olig2, Pdgfra, Cspg4)",[7]; [10],significantly increased expression
same,Expression of pro-inflammatory mediator genes,[7]; [11],reduced expression
same,Gene expression of the anti-inflammatory molecules 1110 and Tgfb1,[7]; [11],significantly increased
same,Expression levels of pro-inflammatory mediator genes such as TNF and IL1β,[8]; [12],reduced expression levels
same,Expression of anti-inflammatory molecules such as TGFβ1,[8]; [12],increased expression
same,Expression of cholesterol export genes Abca1 and Apoe,"[8]; acute phase, prophylactic squalene vs untreated control (FIG. 5b)",upregulated
same,Number of inflammatory cells per gram brain,[9],reduced number of inflammatory cells
same,Number of inflammatory cells per gram spinal cord,[9],reduced number of inflammatory cells
